Reference: ChEMBL document CHEMBL1201862, “PubChem BioAssay data set” (2004)
Calls of active or inactive are those of the source.

Experiments:
[1] = biological target: T1, Fatty acid synthase (Homo sapiens, UniProt P49327); assay: inhibition of human FAS-TE enzyme activity – biochemical, kinetic fluorescence intensity, dose response (AID 624326); type: functional;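 also: rate of fluorescence rise from hydrolysis of a fluorogenic O-methyl fluorescein ester substrate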
[2] = biological target: T1, Fatty acid synthase; assay: inhibition of human FAS-TE enzyme activity – biochemical, endpoint fluorescence intensity, uHTS hits, dose response (AID 624327); type: functional;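 also: fluorescence from hydrolysis of an O-methyl fluorescein acyl ester substrate by the enzyme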
[3] = biological target: T2, Polyadenylate-binding protein 1 (Homo sapiens, UniProt P11940); assay: MLLE domain peptide-binding blockers, IC50 – biochemical, fluorescence polarization, FITC-PAM2 peptide, dose response (AID 602259); type: functional; settings: read-out: IC50_Mean
T2 sequence (P11940 whole entry, the tested form may be a part): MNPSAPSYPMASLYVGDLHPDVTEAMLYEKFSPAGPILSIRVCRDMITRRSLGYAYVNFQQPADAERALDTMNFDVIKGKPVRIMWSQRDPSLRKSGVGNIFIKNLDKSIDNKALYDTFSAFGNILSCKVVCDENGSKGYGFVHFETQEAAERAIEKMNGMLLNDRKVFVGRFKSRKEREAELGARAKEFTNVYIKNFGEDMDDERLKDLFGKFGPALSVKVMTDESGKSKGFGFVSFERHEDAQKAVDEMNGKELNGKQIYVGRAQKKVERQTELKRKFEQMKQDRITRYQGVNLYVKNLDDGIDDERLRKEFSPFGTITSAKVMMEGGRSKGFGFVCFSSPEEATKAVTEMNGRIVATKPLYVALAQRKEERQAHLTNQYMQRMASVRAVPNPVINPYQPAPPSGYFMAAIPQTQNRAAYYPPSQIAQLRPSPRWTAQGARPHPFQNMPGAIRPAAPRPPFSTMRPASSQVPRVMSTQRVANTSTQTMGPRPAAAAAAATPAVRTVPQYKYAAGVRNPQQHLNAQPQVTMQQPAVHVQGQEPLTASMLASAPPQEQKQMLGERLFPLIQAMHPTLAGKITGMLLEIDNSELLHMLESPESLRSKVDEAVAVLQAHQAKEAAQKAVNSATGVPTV

[4] = biological target: T2, Polyadenylate-binding protein 1; assay: MLLE binding blockers, Cy5 peptide tracer – biochemical, fluorescence polarization, Cy5-PAM2 peptide, secondary, miRNA deadenylation inhibitor project, dose response (AID 602260); type: functional; settings: read-out: IC50_Mean
[5] = biological target: Nonstructural protein 1 (Influenza A virus, UniProt Q194T2); type: functional, Influenza A virus (A/California/07/2009(H1N1))
Chain of Nonstructural protein 1 (Q194T2 whole entry): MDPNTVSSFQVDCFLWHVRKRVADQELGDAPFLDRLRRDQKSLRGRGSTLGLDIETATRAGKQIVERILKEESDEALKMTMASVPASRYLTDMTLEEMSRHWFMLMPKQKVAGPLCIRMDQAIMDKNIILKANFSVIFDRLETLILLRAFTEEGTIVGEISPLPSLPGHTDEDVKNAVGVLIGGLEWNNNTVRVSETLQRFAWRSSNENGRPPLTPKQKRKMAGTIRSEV

[6] = fluconazole-exposed Candida albicans growth modulators – fluorescence, retest, confirmation (AID 2467); type: functional, cell-based
[7] = biological target: T3, Calpain-2 catalytic subunit (Sus scrofa, UniProt P43367); assay: m-calpain protease blockers, concentration series – biochemical, fluorogenic peptide substrate, dose response (AID 1420); type: functional
T3 sequence (P43367 whole entry): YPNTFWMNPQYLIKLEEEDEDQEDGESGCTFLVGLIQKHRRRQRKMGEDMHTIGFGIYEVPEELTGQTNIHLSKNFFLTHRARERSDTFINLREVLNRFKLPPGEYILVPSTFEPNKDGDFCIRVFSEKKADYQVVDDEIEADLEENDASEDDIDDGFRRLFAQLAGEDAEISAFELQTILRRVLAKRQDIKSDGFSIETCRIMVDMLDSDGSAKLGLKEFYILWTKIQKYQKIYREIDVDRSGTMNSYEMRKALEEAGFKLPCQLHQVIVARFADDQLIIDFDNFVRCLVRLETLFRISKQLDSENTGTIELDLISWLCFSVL

[8] = NIH-3T3 fibroblast cytotoxicity, dose response, cytotoxicity control, cell-based, fluorescence, Alamar Blue, secondary assay (AID 2327); type: functional;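 also: NIH-3T3 mouse fibroblasts cultured with fluconazole at 8 µg/mL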
[9] = biological target: T4, Protein RecA (Mycobacterium tuberculosis, UniProt P9WHJ3); assay: Fluorescence Cell-Free Homogeneous Dose Retest to Identify Inhibitors of RecA-Intein Splicing Activity. [Related pubchem assays (depositor defined):AID2097, AID2223, AID489010, AID492950]; type: functional
T4 sequence (P9WHJ3 whole entry): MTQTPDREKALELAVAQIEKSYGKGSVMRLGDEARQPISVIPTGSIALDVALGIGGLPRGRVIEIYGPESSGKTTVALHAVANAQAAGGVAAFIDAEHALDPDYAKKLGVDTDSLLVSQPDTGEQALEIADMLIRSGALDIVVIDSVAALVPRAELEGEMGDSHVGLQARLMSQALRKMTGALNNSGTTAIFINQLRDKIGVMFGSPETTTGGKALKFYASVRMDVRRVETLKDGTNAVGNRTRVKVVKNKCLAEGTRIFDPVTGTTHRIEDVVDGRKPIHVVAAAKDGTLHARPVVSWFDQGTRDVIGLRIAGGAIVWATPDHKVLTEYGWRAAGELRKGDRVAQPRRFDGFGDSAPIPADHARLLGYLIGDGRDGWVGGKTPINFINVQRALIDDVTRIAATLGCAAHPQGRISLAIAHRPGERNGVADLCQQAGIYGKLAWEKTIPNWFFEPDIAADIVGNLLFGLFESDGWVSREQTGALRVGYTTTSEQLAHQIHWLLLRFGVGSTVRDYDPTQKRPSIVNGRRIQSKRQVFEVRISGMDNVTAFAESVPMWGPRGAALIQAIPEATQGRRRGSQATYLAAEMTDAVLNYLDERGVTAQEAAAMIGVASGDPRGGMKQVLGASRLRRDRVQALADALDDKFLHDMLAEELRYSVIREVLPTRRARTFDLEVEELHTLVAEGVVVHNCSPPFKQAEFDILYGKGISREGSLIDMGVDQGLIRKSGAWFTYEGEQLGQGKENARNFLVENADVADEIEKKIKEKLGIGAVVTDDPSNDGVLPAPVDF

[10] = biological target: T5, Replicative DNA helicase DnaB (Mycobacterium tuberculosis, UniProt P9WMR3); assay: DnaB intein splicing inhibitors, dose response, biochemical, cell-free fluorescence (AID 449749); type: functional
T5 sequence (P9WMR3 whole entry): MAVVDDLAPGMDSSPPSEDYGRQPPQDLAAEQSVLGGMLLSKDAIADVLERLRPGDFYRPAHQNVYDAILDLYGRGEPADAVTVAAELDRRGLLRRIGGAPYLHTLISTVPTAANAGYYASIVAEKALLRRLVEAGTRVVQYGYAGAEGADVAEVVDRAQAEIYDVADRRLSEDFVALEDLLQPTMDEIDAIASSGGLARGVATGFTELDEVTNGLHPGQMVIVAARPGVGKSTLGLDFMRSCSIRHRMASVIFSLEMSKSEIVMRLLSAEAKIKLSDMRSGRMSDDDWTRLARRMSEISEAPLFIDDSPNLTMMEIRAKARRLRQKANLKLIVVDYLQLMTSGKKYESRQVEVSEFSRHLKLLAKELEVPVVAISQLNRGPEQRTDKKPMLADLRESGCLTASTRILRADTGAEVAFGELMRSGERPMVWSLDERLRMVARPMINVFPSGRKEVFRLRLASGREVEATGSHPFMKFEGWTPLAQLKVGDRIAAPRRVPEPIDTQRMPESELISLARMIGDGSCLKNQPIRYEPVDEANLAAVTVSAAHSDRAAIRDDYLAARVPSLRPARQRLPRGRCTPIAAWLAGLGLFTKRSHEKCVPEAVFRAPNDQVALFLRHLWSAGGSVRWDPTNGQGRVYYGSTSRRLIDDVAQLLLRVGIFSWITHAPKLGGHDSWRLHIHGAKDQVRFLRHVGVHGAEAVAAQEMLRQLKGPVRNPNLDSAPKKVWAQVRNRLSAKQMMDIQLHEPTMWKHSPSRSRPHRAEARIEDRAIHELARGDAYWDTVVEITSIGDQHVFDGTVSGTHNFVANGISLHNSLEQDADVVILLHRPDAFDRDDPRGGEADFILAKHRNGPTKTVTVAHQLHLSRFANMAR

[11] = P. falciparum Dd2 growth inhibitors, dose response, SYBR Green, cherry-picked samples (AID 1159567); type: functional, cell-based
[12] = biological target: T6, High affinity choline transporter 1 (Homo sapiens, UniProt Q9GZV3); assay: human choline transporter blockers, potency – cell-based, 5-point CRC, membrane potential dye, dose response (AID 504840); type: functional
T6 sequence (Q9GZV3 whole entry): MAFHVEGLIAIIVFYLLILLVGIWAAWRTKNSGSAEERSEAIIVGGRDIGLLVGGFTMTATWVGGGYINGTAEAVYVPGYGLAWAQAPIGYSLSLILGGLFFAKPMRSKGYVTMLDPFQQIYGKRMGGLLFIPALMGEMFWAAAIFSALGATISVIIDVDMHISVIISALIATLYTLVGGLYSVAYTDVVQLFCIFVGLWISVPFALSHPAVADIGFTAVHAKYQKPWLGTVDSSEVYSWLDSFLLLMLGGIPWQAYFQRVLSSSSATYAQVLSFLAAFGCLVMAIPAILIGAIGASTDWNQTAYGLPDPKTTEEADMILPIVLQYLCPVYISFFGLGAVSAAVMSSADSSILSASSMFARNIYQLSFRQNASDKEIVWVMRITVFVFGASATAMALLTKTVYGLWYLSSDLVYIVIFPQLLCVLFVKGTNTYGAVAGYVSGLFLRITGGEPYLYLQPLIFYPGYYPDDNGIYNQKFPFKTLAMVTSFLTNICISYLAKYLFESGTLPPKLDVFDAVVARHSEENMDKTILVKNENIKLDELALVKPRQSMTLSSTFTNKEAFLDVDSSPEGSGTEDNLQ

[13] = biological target: T7, RNA-binding protein pos-1 (Caenorhabditis elegans, UniProt G5EF15); assay: disruptors of C. elegans POS-1 RNA interaction – biochemical, fluorescence polarization, dose response (AID 1964);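 also: purified POS-1 fused to maltose binding protein made in E. coli; potency of compounds blocking POS-1 binding to fluorescent RNA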
T7 sequence (G5EF15 whole entry): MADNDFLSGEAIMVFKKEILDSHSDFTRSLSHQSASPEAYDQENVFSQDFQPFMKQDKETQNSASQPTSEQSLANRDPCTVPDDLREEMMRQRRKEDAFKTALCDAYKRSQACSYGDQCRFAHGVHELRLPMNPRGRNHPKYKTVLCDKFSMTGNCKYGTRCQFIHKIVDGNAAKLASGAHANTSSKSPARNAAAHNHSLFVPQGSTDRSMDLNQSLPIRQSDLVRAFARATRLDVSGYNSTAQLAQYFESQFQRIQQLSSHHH

[14] = biological target: T8, Zinc finger protein mex-5 (Caenorhabditis elegans, UniProt Q9XUB2); assay: potency of MEX-5 RNA-binding blockers – biochemical, C. elegans, fluorescence polarization, dose response (AID 1960)
T8 sequence (Q9XUB2 whole entry): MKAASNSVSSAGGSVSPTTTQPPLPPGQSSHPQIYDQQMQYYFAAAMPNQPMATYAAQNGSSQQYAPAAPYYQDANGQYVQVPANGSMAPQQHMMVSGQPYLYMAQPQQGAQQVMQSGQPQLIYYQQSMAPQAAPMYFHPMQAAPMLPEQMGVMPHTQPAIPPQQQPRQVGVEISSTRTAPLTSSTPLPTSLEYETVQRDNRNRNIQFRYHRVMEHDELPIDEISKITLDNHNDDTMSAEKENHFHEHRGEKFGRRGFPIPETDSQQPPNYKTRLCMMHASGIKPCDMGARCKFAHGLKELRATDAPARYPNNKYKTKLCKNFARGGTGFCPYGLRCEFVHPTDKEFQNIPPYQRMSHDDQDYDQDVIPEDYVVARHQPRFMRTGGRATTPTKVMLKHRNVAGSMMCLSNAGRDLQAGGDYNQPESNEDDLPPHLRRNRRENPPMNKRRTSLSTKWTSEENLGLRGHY

T1 sequence (P49327 whole entry): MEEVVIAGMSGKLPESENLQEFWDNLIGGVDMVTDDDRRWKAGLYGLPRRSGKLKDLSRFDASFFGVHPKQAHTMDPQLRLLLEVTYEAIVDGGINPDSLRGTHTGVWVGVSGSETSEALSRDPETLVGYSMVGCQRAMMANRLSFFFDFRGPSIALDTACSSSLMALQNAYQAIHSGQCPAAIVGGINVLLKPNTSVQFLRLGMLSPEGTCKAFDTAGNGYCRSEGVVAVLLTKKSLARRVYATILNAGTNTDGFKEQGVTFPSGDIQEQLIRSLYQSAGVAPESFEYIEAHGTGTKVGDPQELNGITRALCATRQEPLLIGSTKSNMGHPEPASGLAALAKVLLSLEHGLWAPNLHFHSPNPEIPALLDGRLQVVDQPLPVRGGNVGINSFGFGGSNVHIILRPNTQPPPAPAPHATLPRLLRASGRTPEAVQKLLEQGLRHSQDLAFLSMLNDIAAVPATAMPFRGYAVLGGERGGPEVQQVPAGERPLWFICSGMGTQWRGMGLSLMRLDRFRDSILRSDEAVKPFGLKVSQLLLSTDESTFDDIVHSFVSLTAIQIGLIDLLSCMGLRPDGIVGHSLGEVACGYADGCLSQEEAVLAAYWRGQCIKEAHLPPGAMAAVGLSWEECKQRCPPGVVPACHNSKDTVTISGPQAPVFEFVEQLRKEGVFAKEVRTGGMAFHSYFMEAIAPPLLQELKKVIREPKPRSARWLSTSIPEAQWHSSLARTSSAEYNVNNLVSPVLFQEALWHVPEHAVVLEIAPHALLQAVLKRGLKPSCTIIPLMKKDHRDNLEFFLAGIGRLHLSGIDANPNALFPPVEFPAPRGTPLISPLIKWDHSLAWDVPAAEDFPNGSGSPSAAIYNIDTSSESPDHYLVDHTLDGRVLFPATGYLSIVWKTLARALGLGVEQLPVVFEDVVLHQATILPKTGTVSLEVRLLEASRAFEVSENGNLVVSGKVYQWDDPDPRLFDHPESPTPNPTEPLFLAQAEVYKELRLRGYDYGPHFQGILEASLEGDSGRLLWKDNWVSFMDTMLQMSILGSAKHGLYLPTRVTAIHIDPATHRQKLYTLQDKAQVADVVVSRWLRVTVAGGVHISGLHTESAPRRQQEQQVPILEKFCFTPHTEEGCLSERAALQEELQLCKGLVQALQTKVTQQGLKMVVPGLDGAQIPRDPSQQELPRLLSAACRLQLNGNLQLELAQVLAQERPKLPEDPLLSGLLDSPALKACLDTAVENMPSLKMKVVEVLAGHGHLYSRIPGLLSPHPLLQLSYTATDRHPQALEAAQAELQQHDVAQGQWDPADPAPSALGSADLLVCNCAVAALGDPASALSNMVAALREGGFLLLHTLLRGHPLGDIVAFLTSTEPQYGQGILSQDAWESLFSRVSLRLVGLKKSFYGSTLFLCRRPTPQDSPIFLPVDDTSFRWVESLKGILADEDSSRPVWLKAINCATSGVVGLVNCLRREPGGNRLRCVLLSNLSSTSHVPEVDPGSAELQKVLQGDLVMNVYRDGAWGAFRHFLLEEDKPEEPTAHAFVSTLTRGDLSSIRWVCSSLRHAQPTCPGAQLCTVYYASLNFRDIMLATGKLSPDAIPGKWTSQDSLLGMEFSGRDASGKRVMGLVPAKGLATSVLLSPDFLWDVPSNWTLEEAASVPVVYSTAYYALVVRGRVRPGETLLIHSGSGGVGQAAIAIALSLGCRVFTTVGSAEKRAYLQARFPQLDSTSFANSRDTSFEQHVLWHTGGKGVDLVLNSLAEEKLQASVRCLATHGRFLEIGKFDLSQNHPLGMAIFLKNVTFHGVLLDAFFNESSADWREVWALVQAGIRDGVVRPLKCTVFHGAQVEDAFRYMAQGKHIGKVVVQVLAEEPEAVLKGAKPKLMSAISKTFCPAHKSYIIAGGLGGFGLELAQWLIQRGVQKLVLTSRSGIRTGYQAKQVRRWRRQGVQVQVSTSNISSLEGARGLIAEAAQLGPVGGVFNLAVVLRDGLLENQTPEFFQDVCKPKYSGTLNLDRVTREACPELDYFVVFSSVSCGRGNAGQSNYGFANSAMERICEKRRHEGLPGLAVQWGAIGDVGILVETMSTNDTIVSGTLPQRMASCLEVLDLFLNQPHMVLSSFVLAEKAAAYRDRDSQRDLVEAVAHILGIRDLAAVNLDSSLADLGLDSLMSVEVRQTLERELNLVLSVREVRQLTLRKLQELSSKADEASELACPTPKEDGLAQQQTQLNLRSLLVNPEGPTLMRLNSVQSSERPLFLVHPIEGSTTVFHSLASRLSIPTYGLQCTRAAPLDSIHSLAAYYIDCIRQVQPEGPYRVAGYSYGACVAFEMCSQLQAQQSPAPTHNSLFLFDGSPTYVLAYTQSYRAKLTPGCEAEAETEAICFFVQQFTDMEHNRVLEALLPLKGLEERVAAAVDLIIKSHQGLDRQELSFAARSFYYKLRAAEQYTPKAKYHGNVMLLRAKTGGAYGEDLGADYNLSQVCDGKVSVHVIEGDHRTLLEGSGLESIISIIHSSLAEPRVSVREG

SMILES	IC50 [1]	IC50 [2]	AC50 [11]	further results
O=[N+]([O-])c1ccc(S(=O)(=O)Nc2nnc(C3CCCCC3)s2)cc1	7.54 µM (active)	7.87 µM (active)	–	–
CCC(CC)COC(=O)C1=C(C)NC(=O)NC1c1ccc([N+](=O)[O-])cc1 (stereo unspecified)	5.94 µM (active)	4.35 µM (active)	–	–
Cc1ccc(S(=O)(=O)Nc2nc3ccccc3nc2Nc2cccc(S(=O)(=O)N3CCCC3)c2)cc1	–	–	–	IC50 [3]: > 66 µM (inactive); IC50 [4]: > 66 µM (inactive)
O=C1c2ccccc2C(=O)c2c1cccc2N1CCCC1	–	–	–	IC50 [5]: 7.3 µM (active); EC50 [6]: > 38 µM (not active); IC50 [7]: 14.6 µM (not active); EC50 [8]: 55.6 µM (active)
CCOC(=O)c1cnc(-n2[nH]c(C)c(Cc3ccccc3)c2=O)[nH]c1=O	–	–	–	IC50 [5]: 3.4 µM (active); EC50 [9]: 5.99 µM (active); AC50 [10]: 9.77 µM (active)
CC(C)N1C(=O)S/C(=C\c2ccc(-c3ccc(Cl)c(C(=O)O)c3)o2)C1=O	5.51 µM (active)	5.26 µM (active)	–	–
CC(C)(C)NC(=O)NC(=O)COC(=O)Cc1ccc(Cl)cc1Cl	9.75 µM (active)	9.97 µM (active)	–	–
CN1c2ccc(-c3cccc(F)c3)cc2[C@@H]2[C@@H](CCN2C(=O)C2CC2)[C@@H]1CO	–	–	16.8 µM (active)	–
COc1ccc2c3c(n(C)c2c1)[C@@H](CO)N(S(C)(=O)=O)CC31CCN(C(=O)CN(C)C)CC1	–	–	4.28 µM (active)	–
COc1ccc(C2CC(=O)Oc3c(C(CCN4CCCCC4)c4ccc(N(C)C)cc4)c(OC)cc(OC)c32)cc1 (stereo unspecified)	–	–	–	IC50 [5]: 18 µM (active); IC50 [12]: 14.5 µM (active)
COc1ccc2c3c([nH]c2c1)[C@H](CO)N(Cc1cccc(Cl)c1)CC31CCN(C(C)=O)CC1	–	–	4.26 µM (active)	–
O=C1NC(=O)N2CCSC2(Cc2ccccc2)N1 (stereo unspecified)	–	–	–	IC50 [3]: > 66 µM (inactive); IC50 [4]: > 66 µM (inactive)
Cn1c(=O)c([N+](=O)[O-])c(N2CCN(Cc3ccc4c(c3)OCO4)CC2)c2ccccc21	4.73 µM (active)	2.71 µM (active)	–	–
CO[C@@H]1CN(C)C(=O)c2ccc(NC(=O)c3nc4ccccc4s3)cc2OC[C@H](C)N(Cc2cccnc2)C[C@@H]1C	–	–	5 µM (active)	–
O=C(C1CCCC1)N1CC(=O)N2[C@H](CO)[C@@H](c3ccc(C#CCc4ccccc4)cc3)[C@@H]2C1	–	–	6.57 µM (active)	–
C[C@H](O)[C@H](O)[C@H]1CNc2nc(N)[nH]c(=O)c2N1	–	–	–	IC50 [3]: > 66 µM (inactive); IC50 [4]: > 66 µM (inactive)
O=C(N/N=C\C1C(=O)NC(=S)N(c2ccccc2)C1=O)c1ccc(O)cc1 (stereo unspecified)	–	–	–	IC50 [5]: 9.86 µM (active); EC50 [13]: > 300 µM (not active); EC50 [14]: 63.7 µM (active)
CCN(C(=O)COC(=O)c1cc([N+](=O)[O-])ccc1N1CCOCC1)c1ccccc1	1.86 µM (active)	1.94 µM (active)	–	–
Cc1nc(CCNC(=O)CC2C(=O)NCCN2Cc2ccccc2)sc1C (stereo unspecified)	–	–	–	IC50 [3]: > 66 µM (inactive); IC50 [4]: > 66 µM (inactive)
CN1CCN(NC(=O)CN2C(=O)S/C(=C\c3c(Cl)cccc3Cl)C2=O)CC1	–	–	–	IC50 [3]: > 66 µM (inactive); IC50 [4]: > 66 µM (inactive)
CCC(=O)N1CCC2(CC1)CN(Cc1ccc(Cl)cc1)[C@@H](CO)c1[nH]c3cc(OC)ccc3c12	–	–	3.79 µM (active)	–
CCC(=O)N1CCC2(CC1)CN(C(=O)Nc1ccc(F)cc1)[C@@H](CO)c1c2c2ccc(OC)cc2n1C	–	–	4.37 µM (active)	–
O=C1OC(c2ccccc2)=NC12CC2c1ccc(Cl)cc1 (stereo unspecified)	0.238 µM (active)	0.293 µM (active)	–	–
CCCN(C)C[C@@H]1Oc2cc(C#Cc3ccccc3)ccc2S(=O)(=O)N([C@@H](C)CO)C[C@@H]1C	–	–	4.59 µM (active)	–
CC(C)(C)OC(=O)NCCCC[C@H](NC(=O)c1[nH]cnc1C(=O)Nc1ccccc1)C(=O)OC(C)(C)C	3.01 µM (active)	2.63 µM (active)	–	–
